Measurements from paper PMC6688628, “N-Substituted Pyrrole Derivative 12m Inhibits HIV-1 Entry by Targeting Gp41 of HIV-1 Envelope Glycoprotein” (Frontiers in Pharmacology, 2019).

What was measured:
HIV-1 92UG029 = assay: Anti-HIV-1 activity, primary strain 92UG029; assay type: cell-based; settings: Human immunodeficiency virus 1, luciferase readout, mean ± SD
HIV-1 93/BR/020 = assay: microbe, parasite or virus in culture; assay type: cell-based; settings: Human immunodeficiency virus 1, primary strain 93/BR/020, luciferase readout, mean ± SD
Procedure: (§1) The HIV-1 replication-inhibiting activity of compounds was determined as previously described ([Li et al., 2013]). Briefly, 1 × 10^4 TZM-bl or MT-2 cells were infected with primary HIV-1 strains or T20-resistant HIV-1 strains (100 TCID50) in 200 µl of RPMI-1640 medium containing 10% FBS in the presence or absence of compounds at graded concentrations for 12 h. The culture medium was replaced with fresh medium without the compounds. After culture for an additional 48 h, supernatants or cells were collected from each well. For the primary HIV-1 strains, the cells were treated using a luciferase kit. Briefly, the cells were lysed with the lysis reagent and were transferred into a 96-well flat-bottom luminometer plate after three washes with phosphate-buffered saline (PBS) (Costar Corning Inc., Corning, NY), followed by addition of the luciferase substrate included in the luciferase kit (Promega Corp., Madison, WI). The luciferase activity was measured immediately by an Ultra 384 microplate reader (Tecan, Research Triangle Park, NC). T20 was used as a positive control. For the T20-resistant HIV-1 strains, 100 µl of culture supernatant was mixed with 100 µl of 5% Triton X-100. Then, those virus lysates were assayed for p24 antigen by enzyme linked immunosorbent assay (ELISA) as previously described ([Li et al., 2010]). Absorbance at 450 nm was recorded in an ELISA reader (Ultra 384, Tecan). EC50 values were calculated using the computer program CalcuSyn ([Chou and Talalay, 1984]).

HIV-1 BCF02 = assay: microbe, parasite or virus in culture; assay type: cell-based; settings: Human immunodeficiency virus 1, primary strain BCF02, luciferase readout, mean ± SD
Procedure: as §1

HIV-1 US4 (GS 007) = assay: microbe, parasite or virus in culture; assay type: cell-based; settings: Human immunodeficiency virus 1, primary strain US4 (GS 007), luciferase readout, mean ± SD
Procedure: as §1

HIV-1 NL4-3D36G = assay type: cell-based; settings: T20-sensitive parent strain, p24 ELISA, mean ± SD
[1] = tested on: primary HIV-1 strains, including the X4, R5, and X4R5 strains; assay: Anti-HIV-1 activity, panel of primary HIV-1 strains; assay type: cell-based; settings: Human immunodeficiency virus 1; range over X4, R5 and X4R5 primary strains; read-out: EC50 values against all tested representative primary HIV-1 strains
Procedure: as §1, with “Then, those virus lysates were assayed for p24 antigen by enzyme linked immunosorbent assay (ELISA) as previously described ([Li et al., 2010]).” left out

[2] = XTT assay, U87-CD4-CCR5 cells; assay type: cell-based; settings: human
Procedure: (§2) The in vitro cell viability of NSPD-12m on HIV-1 target cells (U87-CD4-CXCR4, U87-CD4-CCR5, TZM-bl, and MT-2 cells) and HIV effector cells (CHO-WT cells) was analyzed by an XTT colorimetric assay. Briefly, 100 µl of 5 × 10^5/ml cells was mixed and incubated with 100 µl of NSPD-12m at graded concentrations at 37°C for 3 days. Then, 50 µl of XTT solution (1 mg/ml) containing 0.02 µM of phenazinemethosulphate (PMS) was added to each well, and the cells were incubated at 37°C for another 4 h. The absorbance at 450 nm was measured with an ELISA reader. The 50% cytotoxicity concentrations (CC50) were calculated using the CalcuSyn software ([Chou and Talalay, 1984]).

XTT assay, MT-2 cells = assay type: cell-based; settings: human
Procedure: as §2

XTT assay, CHO-WT cells = assay type: cell-based; settings: Chinese hamster
Procedure: as §2

[3] = tested on: HIV-1SF162 (R5 strain) Env pseudotyped virus; assay: microbe, parasite or virus in culture; assay type: cell-based; settings: Human immunodeficiency virus 1, single-cycle infection, luciferase
[4] = tested on: HIV-1JR-FL (R5 strain) Env pseudotyped virus; assay: microbe, parasite or virus in culture; assay type: cell-based; settings: Human immunodeficiency virus 1, single-cycle infection, luciferase
[5] = tested on: HIV-1HXB2 (X4 strain) Env pseudotyped virus; assay: microbe, parasite or virus in culture; assay type: cell-based; settings: Human immunodeficiency virus 1, single-cycle infection, luciferase
VSV-G pseudotyped virus = assay type: cell-based, vesicular stomatitis virus
[6] = tested on: HIV-1 Env-mediated fusion of CHO-WT cells with MT-2 cells; assay: HIV-1 Env-mediated cell-cell fusion (syncytium formation); assay type: cell-based; settings: Human immunodeficiency virus 1, MT2; CHO-WT effector cells, MT-2 target cells; 48 h
Procedure: Here, a noninfectious cell–cell fusion assay was used to determine the effect of NSPD-12m on the early step of HIV-1 entry into a target cell as described previously ([Li et al., 2010]). Briefly, 1 × 10^5 CHO-WT cells expressing the HIV-1 envelope glycoprotein gp160 (as the effector cells) were preincubated with graded concentrations of NSPD-12m at 37°C for 30 min. Then, 1 × 10^5 MT-2 cells expressing the CD4 receptor and the CXCR4 coreceptor (as the target cells) were added and cocultured for another 48 h. The obvious syncytia could be counted under an inverted microscope (Nikon, Japan). Four fields per well were examined randomly. The EC50 values were calculated as described previously ([Chou and Talalay, 1984]).

[7] = target: T1, synthetic peptide N36 (gp41 NHR) (Human immunodeficiency virus type 1 group M subtype B, UniProt P04578); assay: Surface plasmon resonance binding to N36; design: species or system HIV-1; settings: SPR, compound immobilized on chip, N36 injected, 25°C; read-out: binding affinity (KD) to N36
T1 construct: purchased GL Biochem of China; host or cells: chemical solid-phase Fmoc synthesis
T1 sequence (P04578 546-581): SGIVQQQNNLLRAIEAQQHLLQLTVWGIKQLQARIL
Procedure: N36 at different concentrations (125, 250, and 500 µM in PBS) was injected at a flow rate of 2 µl/s with an association and dissociation time of 300 s at 25°C. At the end of each cycle, glycine–HCl buffer (pH 2.0) at a flow rate of 3 µl/s was used to regenerate the surface of the sensor chip platform with a regeneration time of 300 s. The binding affinity (KD) was calculated using the PlexeraDE data analysis module and GraphPad Prism 5.0 software.

[8] = tested on: HIV-1JR-FL Env mutant K574A pseudovirus; assay type: cell-based; settings: compared with wild-type HIV-1JR-FL pseudovirus
[9] = tested on: HIV-1 NL4-3(36G)V38E,N42S; settings: T20-resistant NL4-3(36G)V38E,N42S; p24 ELISA; mean ± SD

With `Cc1cc(/C=C2\SC(=S)N(Cc3ccccc3C(F)(F)F)C2=O)c(C)n1-c1ccc(O)c(C(=O)O)c1` [NSPD-12m] as the compound, how does the IC50 (HIV-1 92UG029) read?
Its IC50 is 2.08 ± 0.041 µM.

What about the IC90 (HIV-1 92UG029) of the same compound?
Its IC90 is 2.48 ± 0.041 µM.

And the IC50 (HIV-1 93/BR/020)?
The IC50 was 4.91 ± 0.13 µM.

And the IC90 (HIV-1 93/BR/020; read-out: IC90)?
Its IC90 is 6.76 ± 1.56 µM.

What about the IC50 (HIV-1 BCF02; read-out: IC50) of the same compound?
Its IC50 is 1.79 ± 0.238 µM.

What about the IC90 (HIV-1 BCF02; read-out: IC90) of the same compound?
Its IC90 is 3.48 ± 1.09 µM.

And the IC50 (HIV-1 US4 (GS 007); read-out: IC50)?
The IC50 was 2.34 ± 0.353 µM.

What about the IC90 (HIV-1 US4 (GS 007); read-out: IC90) of the same compound?
The IC90 was 5.27 ± 2.73 µM.

And the IC50 (HIV-1 NL4-3D36G)?
Its IC50 is 10.8 ± 1.67 µM.

And the IC90 (HIV-1 NL4-3D36G)?
Its IC90 is 55.4 ± 16.9 µM.

What about the EC50 [1] of the same compound?
Its EC50 is 2.03 to 6.85 µM.

What about the CC50 at 3 days [2] of the same compound?
Its CC50 at 3 days is 84.7 ± 14.5 µM.

And the CC90 at 3 days [2]?
Its CC90 at 3 days is 102 ± 18.3 µM.

And the CC50 at 3 days (XTT assay, MT-2 cells)?
Its CC50 at 3 days is 67.1 ± 11 µM.

What about the CC90 at 3 days (XTT assay, MT-2 cells) of the same compound?
The CC90 at 3 days was 124 ± 70.2 µM.

And the CC50 at 3 days (XTT assay, CHO-WT cells)?
The CC50 at 3 days was 60 ± 13.2 µM.

What about the CC90 at 3 days (XTT assay, CHO-WT cells) of the same compound?
The CC90 at 3 days was 74.6 ± 13.8 µM.

And the EC50 [3]?
Its EC50 is ~19.7 µM.

What about the EC50 [4] of the same compound?
The EC50 was ~14 µM.

And the EC50 [5]?
The EC50 was ~23.1 µM.

What about the “inhibition of VSV-G pseudovirus infection” value (VSV-G pseudotyped virus) of the same compound?
Its value is “could not be strongly inhibited”.

And the EC50 [6]?
Its EC50 is 14.4 ± 1.24 µM.

And the Kd [7]?
Its Kd is 0.411 µM.

What about the “inhibitory activity against K574A mutant pseudovirus” value [8] of the same compound?
Its value is “significant loss”.

What about the IC50 [9] of the same compound?
Its IC50 is 5.26 ± 0.762 µM.

What about the IC90 [9] of the same compound?
The IC90 was 19.6 ± 0.552 µM.
